IC50 data for one compound are collected here from patent publication US8546395B2, “6-cycloamino-3-(1H-pyrrolo[2,3-b]pyridin-4-yl)imidazo[1,2-b]pyridazine derivatives, preparation thereof and therapeutic use thereof” (Sanofi, priority 2008, dated 2013).

In this experiment the target is T1, casein kinase 1 epsilon (CK1 epsilon) (Homo sapiens, UniProt P49674).
T1 construct: Invitrogen Corporation (as an alternative)
Description: Filter-plate assay of ATP-33P for CK1 epsilon inhibitors (phosphorylation of casein). The class given is biochemical. Particulars: casein substrate, ATP-33P with 10 μM cold ATP, 2 hours at ambient temperature. Here is the method:
The capacity of the compounds of the invention to inhibit the phosphorylation of casein by casein kinase 1 epsilon and delta may be evaluated according to the procedure described in US 2005/0131012.
Filter-Plate Assay of ATP-^33P for the Screening of CK1 Epsilon Inhibitors:
The effect of the compounds on inhibition of the phosphorylation of casein by the enzyme casein kinase 1 epsilon (CK1 epsilon) is measured, using a casein assay with filtration of ATP-^33P in vitro.
Casein kinase 1 epsilon (0.58 mg/ml) is obtained via fermentation and purification processes performed according to methods that are well known to those skilled in the art, or may also be obtained from Invitrogen Corporation™ (human CK1 epsilon).
The compounds are tested at five different concentrations so as to generate IC50 values, i.e. the concentration at which a compound is capable of inhibiting the enzymatic activity by 50%, or alternatively the percentage of inhibition at a concentration of 10 micromolar.
“U”-bottomed Falcon plates are prepared by placing 5 μL of solutions of the compounds according to the invention at concentrations of 10, 1, 0.1, 0.01 or 0.001 μM in various wells. The solutions of the compounds according to the invention at these various concentrations are prepared by diluting in a test buffer (50 mM Tris, pH 7.5, […], 2 mM DTT and 1 mM EGTA) a stock solution in DMSO at a concentration of 10 mM. Next, 5 μL of dephosphorylated casein are added to a final concentration of 0.2 μg/μL, 20 μl of CK1 epsilon to a final concentration of 3 ng/μl, and 20 μl of ATP-^33P to a final concentration of 0.02 μCi/μl mixed with cold ATP (10 μM final—approximately 2×10^6 CPM per well). The final total test volume per well is equal to 50 μl.
The “U”-bottomed Falcon® test plate mentioned above is vortexed, and then incubated at ambient temperature for 2 hours. After 2 hours, the reaction is stopped by adding an ice-cold solution of 65 μl of ATP (2 mM) prepared in test buffer.
100 μl of the reaction mixture are then transferred from the “U”-bottomed Falcon® plate into Millipore® MAPH filter plates, preimpregnated with 25 μl of ice-cold 100% TCA. […]
The plates are left to dry overnight at ambient temperature. […] The radiation emitted by each well is then measured for 2 minutes in a Packard® Topcount NXT scintillation counter, in which the values of CPM/well are measured.
The percentage inhibition of the capacity of the enzyme to phosphorylate the substrate (casein) is determined for each concentration of compound tested. These inhibition data expressed as percentages are used to calculate the IC50 value for each compound compared with the controls.
The kinetic studies determined the KM value for ATP as being 21 μM in this test system.

SMILES strings stand for the structures.

T1 sequence (P49674 whole entry): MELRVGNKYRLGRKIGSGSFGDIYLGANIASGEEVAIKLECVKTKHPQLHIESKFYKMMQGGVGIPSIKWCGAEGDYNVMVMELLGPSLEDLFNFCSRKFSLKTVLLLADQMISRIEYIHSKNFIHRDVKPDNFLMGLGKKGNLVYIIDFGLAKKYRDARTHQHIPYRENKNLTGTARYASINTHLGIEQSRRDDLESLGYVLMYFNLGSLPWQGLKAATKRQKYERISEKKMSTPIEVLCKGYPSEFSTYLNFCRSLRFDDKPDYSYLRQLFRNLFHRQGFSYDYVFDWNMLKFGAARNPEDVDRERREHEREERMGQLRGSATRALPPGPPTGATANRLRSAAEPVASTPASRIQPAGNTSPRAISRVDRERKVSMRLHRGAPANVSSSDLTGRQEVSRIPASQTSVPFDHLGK

What is called IC50 is the concentration needed to halve the response being measured. A high value points to weaker potency. Regarding `Fc1ccc(-c2nc3ccc(N4CCC(N5CCCC5)CC4)nn3c2-c2ccnc3[nH]ccc23)cc1` [Compound 36, 2-(4-Fluorophenyl)-6-(4-pyrrolidin-1-ylpiperidin-1-yl)-3-(1H-pyrrolo[2,3-b]pyridin-4-yl)imidazo[1,2-b]pyridazine], the 50% inhibitory concentration (IC50) is 5 to 8 nM.
